This is an account of results in publication PMC11123956, “Nobiletin Stimulates Adrenal Hormones and Modulates the Circadian Clock in Mice” (Nutrients, 2024).

pIC50: −log10 of the molar value.

Details of data set [1]: method as in doi:10.1016/j.jddst.2022.104013. Conditions: rats; cited from earlier work.
A further data set addresses T1, PDE10A2 (Homo sapiens, UniProt Q9Y233).
T1 construct: purchased Eurofins Panlabs Discovery Services Taiwan, Ltd. (contract assay); host or cells: insect Sf9 cells
Put plainly: PDE enzyme (kinase) assay, PDE10A2. The data set is classed as biochemical. Here is the method: (§1) Enzyme assays for various subtypes of PDE (Table 1 and Figure 4) were conducted by Eurofins Panlabs Discovery Services Taiwan, Ltd. (New Taipei City, Taiwan). In the assays, five or six concentrations of nobiletin over five or six orders of magnitude were examined in experiments conducted in duplicate to determine the IC50 (concentration of nobiletin exerting half-maximal inhibition of control-specific activity). IC50 values were determined by nonlinear least squares regression analysis using MathIQTM (ID Business Solutions Ltd., Woking, UK). FAM-cAMP, FAM-cGMP (0.1 μM), and 100 μM [^3H]cGMP + cGMP were used for the substrate in the human recombinant insect Sf9 cells or Bovine retinal rod outer segments depending on the PDE subtype. The spectrofluorometric quantitation of fluorescein-AMP-IMAP, fluorescein-GMP-IMAP, or [^3H] guanosine was used depending on the PDE subtype. A known […] of each PDE was used as the positive control.
(§2) Figure 4 PDE kinase assays and the acute clock gene expression changes by PDE4 inhibitor or ROR α/γ agonist. (A) Inhibitory effect of nobiletin on PDE4A1, 4B1, and 10A2. Various concentrations of nobiletin (1–100 μM) were used for IC50 determination (Table 1). Values represent the mean of two experiments. Positive controls were rolipram for PDE4A1 and 4B1 and papaverine for PDE10A2. […]

The next data set addresses T2, PDE4B1 (Homo sapiens, UniProt Q07343).
T2 construct: purchased Eurofins Panlabs Discovery Services Taiwan, Ltd. (contract assay); host or cells: insect Sf9 cells
The data set is described as follows: PDE enzyme (kinase) assay, PDE4B1. The data set is classed as biochemical. On the procedure: as §1, §2

The test system of the next data set is Per2 mRNA. Put plainly: Real-time RT-PCR of Per2 mRNA in peripheral tissues. The class given is in vivo, mice. Conditions: liver, an hour after treatment. On the procedure: Male C57BL/6J mice (7 weeks old) were purchased from Charles River Japan (Kanagawa, Japan) and used for the serum hormone assay and RT-PCR. Male ICR mice were purchased from Tokyo Laboratory Animals Science Co., Ltd. (Tokyo, Japan), and female PERIOD2::LUCIFERASE (PER2::LUC) knock-in mice (ICR background) bred at Waseda University were used for blood glucose measurements and in vivo imaging assays, respectively. The mice were all housed under conditions of controlled temperature (23 °C ± 3 °C), humidity (50% ± 20%), and lighting (lights on from 07:00 to 19:00 at Taisho Pharmaceutical Co., Ltd. or from 08:00 to 20:00 at Waseda University). In the 24 h cycle, Zeitgeber time 0 (ZT0) was designated as the time when the lights were turned on, and ZT12 was designated as the time when the lights were turned off. All the mice were given access to food and tap water ad libitum, and nobiletin (10–100 mg/kg; purchased from FUJIFILM Wako Pure Chemical Corporation, Osaka, Japan) was administered by intraperitoneal (i.p.) injection in the vehicle (10 mL/kg body weight) containing 0.5% carboxymethyl cellulose (CMC). Rolipram (PDE4 inhibitor, FUJIFILM Wako Pure Chemical Corporation) and SR1078 (RORα/γ agonist, FUJIFILM Wako Pure Chemical Corporation) were also used for the experiment at 10 mg/kg in 0.5% CMC [12]. Mice were euthanized by rapid decapitation for whole blood samples. […]
Background: Real-time PCR tracks product formation cycle by cycle.

T2 sequence (Q07343 whole entry): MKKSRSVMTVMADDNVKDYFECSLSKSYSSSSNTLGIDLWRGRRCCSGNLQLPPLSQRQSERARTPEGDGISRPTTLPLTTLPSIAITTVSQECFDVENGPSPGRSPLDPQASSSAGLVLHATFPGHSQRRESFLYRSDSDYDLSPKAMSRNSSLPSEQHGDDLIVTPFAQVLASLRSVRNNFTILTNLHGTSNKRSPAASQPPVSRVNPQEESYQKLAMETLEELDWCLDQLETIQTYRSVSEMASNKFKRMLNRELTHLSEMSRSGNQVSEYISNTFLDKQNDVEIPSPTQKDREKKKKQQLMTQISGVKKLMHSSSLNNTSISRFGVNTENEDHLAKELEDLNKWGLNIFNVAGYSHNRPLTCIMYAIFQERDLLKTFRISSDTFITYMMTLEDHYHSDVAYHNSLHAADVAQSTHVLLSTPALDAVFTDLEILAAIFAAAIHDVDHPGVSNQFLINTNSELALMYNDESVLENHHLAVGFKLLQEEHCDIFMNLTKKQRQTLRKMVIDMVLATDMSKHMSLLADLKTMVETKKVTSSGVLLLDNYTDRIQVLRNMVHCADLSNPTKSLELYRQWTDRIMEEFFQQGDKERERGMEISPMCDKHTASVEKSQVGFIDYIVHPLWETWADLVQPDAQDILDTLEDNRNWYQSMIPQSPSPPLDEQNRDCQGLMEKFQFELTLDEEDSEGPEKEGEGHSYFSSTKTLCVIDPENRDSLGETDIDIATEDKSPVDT
T1 sequence (Q9Y233 267-1055): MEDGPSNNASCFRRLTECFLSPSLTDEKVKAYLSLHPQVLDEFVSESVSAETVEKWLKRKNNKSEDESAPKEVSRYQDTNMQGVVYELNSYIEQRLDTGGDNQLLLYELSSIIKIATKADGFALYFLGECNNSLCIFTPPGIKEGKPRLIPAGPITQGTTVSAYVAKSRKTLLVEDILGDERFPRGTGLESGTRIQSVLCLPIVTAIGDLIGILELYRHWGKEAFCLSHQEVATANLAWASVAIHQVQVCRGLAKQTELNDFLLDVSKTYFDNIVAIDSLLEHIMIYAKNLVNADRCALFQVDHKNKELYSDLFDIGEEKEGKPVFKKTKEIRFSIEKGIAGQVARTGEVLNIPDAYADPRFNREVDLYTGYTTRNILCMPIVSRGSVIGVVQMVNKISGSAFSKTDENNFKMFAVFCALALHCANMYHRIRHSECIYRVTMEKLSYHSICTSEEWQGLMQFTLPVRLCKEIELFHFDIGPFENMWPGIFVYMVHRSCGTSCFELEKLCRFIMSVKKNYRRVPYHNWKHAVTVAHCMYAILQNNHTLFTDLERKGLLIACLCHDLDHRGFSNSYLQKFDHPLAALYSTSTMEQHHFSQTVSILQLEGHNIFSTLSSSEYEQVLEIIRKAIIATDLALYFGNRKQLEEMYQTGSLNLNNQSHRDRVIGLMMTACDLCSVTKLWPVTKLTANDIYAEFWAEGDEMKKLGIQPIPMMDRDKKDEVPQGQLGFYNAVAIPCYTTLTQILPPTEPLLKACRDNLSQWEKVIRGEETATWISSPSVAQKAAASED

The term pIC50 denotes −log10 of the IC50, conventionally taken in molar units. Read a high pIC50 as a small IC50. Turning to `COc1ccc(-c2cc(=O)c3c(OC)c(OC)c(OC)c(OC)c3o2)cc1OC` [nobiletin], the “time of the highest plasma concentration” value in data set [1] was 2 to 4 h. The pIC50 was at least 5.22 against PDE10A2 (IC50, PDE10A2, bound stated in the discussion); 5.82 at PDE10A2 (IC50 Dose, PDE10A2, duplicate); at least 5.22 at PDE4B1 (IC50, PDE4B1, bound stated in the discussion); 5.22 against PDE4B1 (IC50 Dose, PDE4B1, duplicate). The Per2 expression entry in the data set on Per2 mRNA is “decreased significantly”.
